Measurements reported in patent US6884601B1, “Method to detect fertilization potential of sperm” (priority 1999, dated 2005).

Biological target: T1, phospholipid hydroperoxide glutathione peroxidase (PHGPx) (Rattus norvegicus, UniProt P36970)
T1 construct: from tissue; host or cells: Wistar rat: cells from seminiferous tubules of the testis, epididymal spermatozoa, sperm mitochondrial capsule
T1 sequence (P36970 3-170 isoform P36970-2 limits assumed): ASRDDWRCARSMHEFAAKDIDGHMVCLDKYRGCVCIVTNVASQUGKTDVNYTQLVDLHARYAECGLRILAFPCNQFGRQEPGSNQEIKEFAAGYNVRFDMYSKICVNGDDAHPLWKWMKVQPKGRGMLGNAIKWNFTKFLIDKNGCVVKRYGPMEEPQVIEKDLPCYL
Assay: PHGPx activity after solubilisation/reduction with thiols (phosphatidylcholine hydroperoxide substrate)
Type: biochemical
Details: for PHGPx activity: 6M guanidine-HCl, pH 7.5, 4° C., 10 min
Experimental: In fact, the specific activities thus obtained from mitochondrial capsules exceed, by a factor of 20, the highest values ever measured, i.e. in spermatogenic cells. Nevertheless, this extreme PHGPx activity is still low compared to its content in PHGPx protein.
Spermatozoa of four month old Wistar rats (about 300 grams of body weight) were collected by squeezing cauda epididymis and vas deferens in phosphate buffer saline (PBS) and by centrifugating at 600×g for 10 minutes. Cell and sperm pellets were layered on a discontinous 45%, 70% and 95% Percoll gradient and centrifugated at 300×g for 20 min. Spermatogenic cells stacked on top of the gradient, while spermatozoa separated into the 70% Percoll layer. Cells from seminiferous epithelium were prepared as follows (26): testes were deprived of albuginea, seminiferous tubules were cut into small pieces in PBS containing 0.250 mg/ml collagenase, and incubated twice 25° C. for 15 min. Cells then were filtered through a stainless steel screen (140 μm pore), washed in PBS and centrifugated at 300×g for 10 min. Sperm mitochondrial capsule was prepared according to Calvin et al. (1): sperms were resuspended in 0.05 M Tris-HCl pH 8.0 at the concentration of 10^6 cells/ml and treated with trypsin (0.2 mg/ml) for 10 minutes. After stopping the protease action with trypsin inhibitor (0.5 mg/ml) and SDS (10 mg/ml) sperms were centrifugated at 1,500×g for 10 minutes. Pellets were resuspended in 0.05 M Tris-HCl, pH 8.5 containing 1% sodium dodecyl sulphate (SDS), and 0.2 mM DTT and kept under continuous stirring for 30 minutes. Following centrifugation at 4,500×g for 15 min, the resulting supernatant was layered on a 1.6 M sucrose cushion. After centrifugation for 20 min at 18,000×g in a swinging rotor, sperm capsules were collected as a band at the top of the sucrose cushion, washed in Tris-HCl, pH 8.0 and spun at 140,000×g.
When applicable, PHGPx was also identified by activity measurement according to (28) using the specific substrate phosphatidylcholine hydroperoxide.

[1] = 0.1 M thiol in the presence of guanidine, measured after elimination of denaturating and reducing agents

Row | Reactivation of latent PHGPx of sperm mitochondrial capsule / mature spermatozoa [1] | PHGPx activity (Cells from seminiferous tubules, 5 mM 2-mercaptoethanol, mean and S.D. of five) [mU/mg protein] | PHGPx activity (Cells from seminiferous tubules, 100 mM 2-mercaptoethanol, mean and S.D. of five) [mU/mg protein] | PHGPx activity (Mitochondrial capsule, 5 mM 2-mercaptoethanol) | PHGPx activity (Mitochondrial capsule, 100 mM 2-mercaptoethanol, mean and S.D. of five) | PHGPx activity (Spermatozoa from tail of epididymis, 5 mM 2-mercaptoethanol) | PHGPx activity (Spermatozoa from tail of epididymis, 100 mM 2-mercaptoethanol, mean and S.D. of five) | Reactivation of latent PHGPx of sperm mitochondrial capsule / mature spermatozoa (glutathione in the low millimolar range, conventional test conditions) | SMILES
1 | regenerate a significant PHGPx activity |  |  |  |  |  |  |  | O[C@H](CS)[C@H](O)CS (racemic) [dithiothreitol]
2 | regenerate a significant PHGPx activity | 250 ± 10 | 260 ± 10 | undetectable | 5,600 ± 290 mU/mg protein | undetectable | 3,140 ± 200 mU/mg protein |  | OCCS [2-mercaptoethanol]
3 |  |  |  |  |  |  |  | neither reactivated | N[C@@H](CCC(=O)N[C@@H](CS)C(=O)NCC(=O)O)C(=O)O [glutathione]
